Where “and” joins values, the source holds several entries; their conditions need not be identical. Identical values can stand only once.
Assays:
[1] = Fluorescence response of 1 with increasing concentrations of H2O2; conditions: 0-159 μM H2O2 solutions, phosphate pH 7 buffer, 25° C., 20 min
Protocol: To verify that 1 could quantitatively measure H2O2 concentrations, 1 was incubated with increasing concentrations of H2O2. A solution of 0-159 μM H2O2 in 5:95 MeCN/50 mM phosphate pH 7 buffer (180 μL) was added to the wells of a black 96-well plate. A solution of 100 μM 1 in MeCN (20 μL) was then added to the wells. The solutions were allowed to incubate at 25° C. for 20 min before the fluorescence was measured.

[2] = Selectivity of 1: reaction with NO3^−; conditions: for Fluorescence: 15 min minus 0 min
Protocol: The probe 1 was then exposed to NO3^− at various concentrations. NaNO3 (30.9 mg) was dissolved in ultrapure water (2.00 mL). This solution was diluted to 10 μM, 100 μM, 1.00 mM, and 10.0 mM. H2O2 was diluted to 10 μM, 100 μM, 1.00 mM, and 10.0 mM. A solution of 100 μM 1 in ethanol (20 μL) was added to 5:95 methanol/50 mM pH 7 potassium phosphate buffer (160 μL). The NaNO3 or H2O2 solutions (20 μL) were added to the solution containing 1 and the fluorescence intensity was measured immediately and again after incubation at 25° C. for 15 min. The fluorescence change over the first 15 min was reported for NO3^− in FIG. 21 and Table 12. The fluorescence values in Table 12 are the fluorescence at 15 min minus the fluorescence at 0 min.

[3] = Fluorescence intensity of selenide 1 and phenol 5; format: physicochemical
Protocol: All fluorescence measurements (excitation 490 nm, emission 510-570 nm) were carried out using a Promega Biosystems Modulus II Microplate Reader or a HoribaMax Fluorometer unless otherwise stated. Data analysis was performed using GraphPad Prism 8.
The fluorescence intensity of selenide 1 and phenol 5 were investigated. Solutions containing ultrapure water (681 μL), […] phosphate pH 7 buffer (31 μL), DMSO (28.1 μL), and 80 μM 1 or phenol 5 in DMSO (9.4 μL) were made. Aliquots of these solutions (200 μL) were transferred to the wells of a black 96-well plate and the fluorescence was measured. As evident from FIG. 10 and Table 1, the difference in fluorescence intensity of probe 1 and phenol 5, is 27-fold. Generally, O-alkylation of Pittsburgh Green suppresses the fluorescence by 200-400 fold. The somewhat modest fluorescence increase in the current system is attributed to the trace contamination of the fluorescent compound 5 during the purification of the nonfluorescent probe 1.

[4] = Selectivity of 1: reaction with NO·; conditions: 15 min minus 0 min
[5] = Response of probe 1 to H2O2 at various pHs; conditions: for Fluorescence: 23° C., 20 min
Protocol: The probe's response to H2O2 in the pH 4-7.3 range was studied to determine whether this technology would work in acidic and neutral intracellular environments, such as lysosomes (pH 5), Golgi apparatus (pH 6.4-6.8), mitochondria (pH 6.9-8.0), and cytoplasm (pH 7.1-7.6). A solution of 50 mM phosphate pH 7.3 buffer was treated with 1.0 N HCl to adjust the pH to 7.0, 6.5, 5.9, 5.4, 4.5, or 4.1. The concentration of the resulting buffers was adjusted with water to 25 mM phosphate buffer. Solutions of 25 mM phosphate pH 7.3, 7.0, 6.5, 5.9, 5.4, 4.5, or 4.1 buffer ([…]) and 100 μM probe 1 in MeOH were treated with 100 μM, 10 μM or 0 μM H2O2 in water. The solutions were allowed to incubate at 23° C. for 20 min prior to measuring the fluorescence.

[6] = Selectivity of 1: reaction with ·OH; conditions: for Fluorescence: 40 min minus 0 min
Protocol: The reactivity of 1 with ·OH was also investigated. ·OH was generated through the reaction of FeSO4·7H2O with H2O2. A solution of 100 μM 1 in ethanol (20 μL) was added to 5:95 methanol/50 mM phosphate pH 7 buffer (140 μL). Water or 104 U/mL catalase (20 μL) was added to the mixture. FeSO4·7H2O (27.4 mg) was added to ultrapure water (2.00 mL). This solution was diluted to 20 μM, 200 μM, and 2.00 mM. H2O2 was diluted to 200 μM and 2.00 mM. Equal volumes of FeSO4·7H2O solution and H2O2 were added together, and an aliquot (20 μL) was immediately transferred to the solution containing 1. The fluorescence intensity was measured immediately and again after incubation at 25° C. for 40 min. […] The Fluorescence values in Table 8 are the fluorescence at 40 min minus the fluorescence at 0 min.

Oc1ccc2c(c1)Oc1cc(O/C=C/C[Se]c3ccccc3)ccc1[C@@]21OCc2ccccc21 [Compound 1, (S,E)-6′-((3-(Phenylselanyl)prop-1-en-1-yl)oxy)-3H-spiro[isobenzofuran-1,9′-xanthen]-3′-ol]
fluorescence dependence on H2O2 concentration [1]: increased linearly with H2O2 concentration
reaction with NO3^− [2]: did not react
Fluorescence ([2]; 0 μM NO3^− or H2O2, pH 7, 25° C.): 24,359 and 26,870 and 26,226
Fluorescence ([2]; 0.1 μM H2O2): 58,172 and 52,104 and 52,249
Fluorescence ([2]; 0.1 μM NO3^−): 34,507 and 35,439 and 40,487
Fluorescence ([2]; 1 μM H2O2): 266,770 and 242,313 and 222,834
Fluorescence ([2]; 1 μM NO3^−): 43,966 and 35,385 and 47,433
signal increase in the conversion if trace phenol 5 can be removed from selenide 1 ([3]; extrapolated): 125-250 fold
difference in fluorescence intensity of probe 1 and phenol 5 ([3]; phosphate pH 7 buffer): 27 fold
Fluorescence Intensity ([3]; water/phosphate pH 7 buffer/DMSO, 200 μL, excitation 490 nm, emission 510-570 nm, replicates n = 3): 7,053 and 11,524 and 8,556
Fluorescence ([4]; 0.1 μM H2O2): 9,370 and 9,525 and 9,517
Fluorescence ([4]; 1 μM H2O2): 26,155 and 26,618 and 27,176
Fluorescence ([4]; 10 μM H2O2): 111,008 and 106,765 and 111,053
pH dependence of fluorescence signals with H2O2 ([5]; pH 4-7.3 range): higher when the pH was above 5.4
Fluorescence ([5]; pH 4.10, 0 μM H2O2): 28,470 and 25,037 and 28,661
Fluorescence ([5]; pH 4.10, 1 μM H2O2): 35,884 and 30,492 and 30,471
Fluorescence ([5]; pH 4.10, 10 μM H2O2): 51,632 and 54,097 and 52,472
Fluorescence ([5]; pH 4.50, 0 μM H2O2): 29,770 and 29,064 and 29,069
Fluorescence ([5]; pH 4.50, 1 μM H2O2): 40,599 and 31,790 and 33,283
Fluorescence ([5]; pH 4.50, 10 μM H2O2): 55,577 and 54,961 and 56,315
Fluorescence ([5]; pH 5.40, 0 μM H2O2): 56,192 and 56,334 and 52,671
Fluorescence ([5]; pH 5.40, 1 μM H2O2): 61,365 and 63,294 and 60,943
Fluorescence ([5]; pH 5.40, 10 μM H2O2): 106,516 and 107,311 and 103,354
Fluorescence ([5]; pH 5.90, 0 μM H2O2): 87,499 and 89,708 and 90,424
Fluorescence ([5]; pH 5.90, 1 μM H2O2): 113,703 and 111,368 and 107,545
Fluorescence ([5]; pH 5.90, 10 μM H2O2): 167,836 and 187,633 and 154,515
Fluorescence ([5]; pH 6.50, 0 μM H2O2): 155,151 and 183,747 and 149,421
Fluorescence ([5]; pH 6.50, 1 μM H2O2): 203,661 and 188,050 and 184,986
Fluorescence ([5]; pH 6.50, 10 μM H2O2): 332,896 and 341,948 and 335,544
Fluorescence ([5]; pH 7.00, 0 μM H2O2): 199,101 and 207,136 and 187,676
Fluorescence ([5]; pH 7.00, 1 μM H2O2): 247,464 and 221,499 and 229,530
Fluorescence ([5]; pH 7.00, 10 μM H2O2): 389,464 and 369,467 and 390,006
Fluorescence ([5]; pH 7.30, 0 μM H2O2): 189,898 and 183,424 and 169,054
Fluorescence ([5]; pH 7.30, 1 μM H2O2): 228,368 and 208,913 and 186,665
Fluorescence ([5]; pH 7.30, 10 μM H2O2): 373,555 and 388,584 and 401,912
reaction with FeSO4 or ·OH [6]: neither FeSO4 nor the ·OH reacted with the probe
Fluorescence ([6]; catalase, FeSO4 0 μM, 0 μM H2O2): 31,506 and 41,340 and 38,159
Fluorescence ([6]; catalase, FeSO4 1 μM, 0 μM H2O2): 28,688 and 24,359 and 45,310
Fluorescence ([6]; catalase, FeSO4 1 μM, 100 μM H2O2): 38,285 and 34,591 and 26,790
Fluorescence ([6]; catalase, FeSO4 10 μM, 0 μM H2O2): 24,822 and 33,920 and 47,376
Fluorescence ([6]; catalase, FeSO4 10 μM, 100 μM H2O2): 32,300 and 42,724 and 50,635
Fluorescence ([6]; catalase, FeSO4 100 μM, 0 μM H2O2): 35,828 and 18,194 and 20,321
Fluorescence ([6]; catalase, FeSO4 100 μM, 10 μM H2O2): 20,486 and 26,765 and 15,423
Fluorescence ([6]; catalase, FeSO4 100 μM, 100 μM H2O2): 46,232 and 46,921 and 52,666
Fluorescence ([6]; no additive, FeSO4 0 μM, 0 μM H2O2): 50,173 and 48,124 and 44,143
Fluorescence ([6]; no additive, FeSO4 0 μM, 10 μM H2O2): 43,929 and 46,186 and 43,989
Fluorescence ([6]; no additive, FeSO4 0 μM, 100 μM H2O2): 85,271 and 94,742 and 95,713
Fluorescence ([6]; no additive, FeSO4 1 μM, 0 μM H2O2): 44,775 and 42,847 and 41,775
Fluorescence ([6]; no additive, FeSO4 1 μM, 10 μM H2O2): 49,425 and 47,262 and 44,251
Fluorescence ([6]; no additive, FeSO4 1 μM, 100 μM H2O2): 86,594 and 103,905 and 91,684
Fluorescence ([6]; no additive, FeSO4 10 μM, 0 μM H2O2): 43,299 and 42,365 and 40,214
Fluorescence ([6]; no additive, FeSO4 10 μM, 10 μM H2O2): 42,933 and 40,908 and 38,283
Fluorescence ([6]; no additive, FeSO4 10 μM, 100 μM H2O2): 91,049 and 90,712 and 94,948
Fluorescence ([6]; no additive, FeSO4 100 μM, 0 μM H2O2): 32,709 and 41,351 and 31,615
Fluorescence ([6]; no additive, FeSO4 100 μM, 10 μM H2O2): 56,260 and 46,281 and 43,358
Fluorescence ([6]; no additive, FeSO4 100 μM, 100 μM H2O2): 99,384 and 99,391 and 95,778
